The structures appear in SMILES notation. Some results are limits rather than exact numbers.

T1 sequence (Q9NYA1 whole entry): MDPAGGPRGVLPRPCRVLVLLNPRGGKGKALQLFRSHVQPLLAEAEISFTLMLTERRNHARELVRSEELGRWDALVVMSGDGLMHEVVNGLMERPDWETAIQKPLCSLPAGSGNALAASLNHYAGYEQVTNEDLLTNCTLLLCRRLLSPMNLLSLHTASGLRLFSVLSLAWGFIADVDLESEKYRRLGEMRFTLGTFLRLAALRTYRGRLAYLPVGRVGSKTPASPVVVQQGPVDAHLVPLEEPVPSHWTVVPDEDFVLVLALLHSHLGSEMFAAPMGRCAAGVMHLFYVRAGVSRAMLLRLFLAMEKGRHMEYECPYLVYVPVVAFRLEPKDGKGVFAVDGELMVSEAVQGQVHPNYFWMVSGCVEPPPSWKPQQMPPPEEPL

The test addresses T1, SPHK-1 (Homo sapiens, UniProt Q9NYA1).
T1 construct: purchased BPS Bioscience
The test can be described thus: Reporter Assay: sphingosine kinase conversion of fluorescein-labeled sphingosine, read on Lab Chip 3000. It counts as biochemical. The following applies: 2 μM Fl-sphingosine, 25 μM ATP, 300 ng/ml SK1, 1 hour at room temperature; from percent conversion of substrate to product; read-out: SPHK-1 IC50 (n =). The protocol: Sphingosine kinase is a 49 kDa enzyme that catalyzes the formation of sphingosine-1-phosphate (S-1-P) from sphingosine.
Fluorescein labeled sphingosine was obtained from Echelon Biosciences (S-100F). Buffer reagents (1 M Hepes, 10 triton x-100, 100% glycerol, dithiothreitol 1 M MgCl2, ATP, 500 mM EDTA and DMSO) were purchased from Sigma. Coating reagent (CR-3), was obtained from Caliper Life Sciences.
0.05% Triton X-100, 2.5% glycerol, 0.1% CR-3, and 0,6% DMSO. Termination butler included 100 mM Hepes (pH 7.5), 40 mM EDTA, 0.05% Triton X-100, 2.5% glycerol, 0.3% CR-3, and 0.6% DMSO.
All assay components were made in reaction buffer. […] The assaylvas allowed to incubate at room temperature sealed and protected from light for 1 hour.
After 1 hour, 10 μl of termination buffer was added to terminate, the reaction, and the plate was read on a Lab Chip 3000. The plate was read for one cycle. The Lab Chip separated substrate and product based on charge.
Results were calculated based on percent conversion of substrate to product using the following formula: […]
Percent inhibition and IC50's for compounds of the invention were determined using the percent conversion values obtained horn the Lab Chip.
(In a reporter assay the amount or activity of a reporter protein is the signal.)
Regarding `CCCCCCCc1nc(-c2ccc(CNC(=O)[C@@H](N)CCO)cc2)no1` [Example 83, (S)-2-Amino-N-(4-(5-heptyl-1,2,4-oxadiazol-3-yl)benzyl)-4-hydroxybutanamide], the IC50 (in general, the point on the concentration scale where inhibition reaches its midpoint) is 600 nM. In the case of `O=C(Nc1ccc(CCCCCOc2ccc(F)cc2)cc1)[C@H]1NCC[C@@H]1O` [Example 24, (2S,3S)-N-(4-(5-(4-Fluorophenoxy)pentyl)phenyl)-3-hydroxy-pyrrolidine-2-carboxamide], the IC50 worked out at 190 nM.

`CCCCCCCCCCc1ccc(NC(=O)[C@H]2NCCC[C@H]2O)cc1` (relative stereo) [Example 45, cis-N-(4-decylphenyl)-3-hydroxy-piperidine-2-carboxamide]: the IC50 is > 10000 nM. With `CCCCCCCSCc1ccc(CNC(=O)[C@H]2NCC[C@@H]2O)cc1` [Example 43, (2S,3S)-N-(4-(heptylthio-methyl)benzyl)-3-hydroxy-pyrrolidine-2-carboxamide], the IC50 is 180 nM. Regarding `CCCCCCCCCCc1ccc(NC(=O)[C@H]2C[C@H](O)CCN2)cc1` [Example 123, (2R,4R)—N-(4-decylphenyl)-4-hydroxypiperidine-2-carboxamide], the IC50 is 9700 nM. With `O=C(Nc1ccc(CCCCCCCOc2ccc(F)cc2)cc1)[C@H]1NCC[C@@H]1O` [Example 25, (2S,3S)-N-(4-(7-(4-Fluorophenoxy)heptyl)phenyl)-3-hydroxy-pyrrolidine-2-carboxamide], the IC50 was determined as 370 nM. With `CCCCCCS(=O)(=O)Cc1ccc(NC(=O)[C@H]2NCC[C@@H]2O)cc1` [Example 46, (2S,3S)-N-(4-(hexylsulfonyl-methyl)phenyl)-3-hydroxy-pyrrolidine-2-carboxamide], the IC50 was > 10000 nM.

As to `O=C(NCc1cc(F)c2oc(C3CCCCC3)cc2c1)[C@H]1NCC[C@@H]1O` [Example 122, (2S,3S)—N-((2-Cyclohexyl-7-fluorobenzofuran-5-yl)methyl)-3-hydroxypyrrolidine-2-carboxamide], the IC50 is 790 nM. With `CCCCCCCCc1ccc(-c2ccc(NC(=O)[C@@H](N)[C@@H](C)O)cc2)cc1` [Example 59, (2S,3R)-2-Amino-3-hydroxy-N-(4′-octylbiphenyl-4-yl)butanamide] the figure was 1100 nM.

As to `CCCCCCCCc1nc(-c2ccc(CNC(=O)[C@H]3NCC[C@@H]3O)cc2)cs1` [Example 103, (2S,3S)-3-hydroxy-N-(4-(2-octylthiazol-4-yl)benzyl)pyrrolidine-2-carboxamide], the IC50 worked out at 49 nM. `O=C(Nc1ccc(CCCOc2ccc(F)cc2)cc1)[C@H]1NCC[C@@H]1O` [Example 23, (2S,3S)-N-(4-(3-(4-Fluorophenoxy)propyl)phenyl)-3-hydroxy-pyrrolidine-2-carboxamide]: the IC50 amounted to 1500 nM. The same measure for `CCCCCCCCCc1ccc(NC(=O)C(N)CO)cc1` (racemic) [Example 13, (+/−)-2-Amino-3-hydroxy-N-(4-nonylphenyl) propanamide]: 3800 nM; for `O=C(NCc1ccc(-n2cc(CCc3ccccc3)nn2)cc1)[C@H]1NCC[C@@H]1O` [Example 65, (2S,3S)-3-Hydroxy-N-(4-(4-phenethyl-1H-1,2,3-triazol-1-yl)benzyl)pyrrolidine-2-carboxamide]: 1600 nM. As for `CCCCCCCCc1ccc(NC(=O)[C@@H](N)[C@@H](C)O)cc1` [Example 29, (2S,3R)-2-Amino-3-hydroxy-N-(4-octylphenyl) butanamide], the IC50 was determined as 870 nM. The same measure for `O=C(Nc1ccc(CCCC2CCCCC2)cc1)[C@H]1NCC[C@@H]1O` [Example 50, (2S,3S)-N-(4-(3-cyclohexyl-propyl)phenyl)-3-hydroxy-pyrrolidine-2-carboxamide]: 950 nM.

The record behind these values is patent US20110275673A1, “INHIBITORS OF SPHINGOSINE KINASE 1” (priority 2008, published 2011).
